Data from the NIST ThermoML archive (doi:10.1021/acs.jced.7b00035).
Where “and” joins values, the source holds several entries; their conditions need not be identical. Equal values may be shown once. ± gives the expanded uncertainty stated by the source.

How the values were obtained:
[1] = xn = mol fraction of the nth substance listed; details: 100 kPa, Liquid, Vibrating tube method
[2] = excess molar enthalpy (molar enthalpy of mixing); xn = mol fraction of the nth substance listed; details: 100 kPa, Liquid, Flow calorimetry

CC(=O)CC(C)C [4-methylpentan-2-one] + O
Details | excess molar enthalpy, [2] | mass density, [1]
288.15 K, x1 = 0.000573 | -0.00173 ± 0.000198 kcal/mol | 998.669 ± 0.037 kg/m3
288.15 K, x1 = 0.000574 | -0.00174 ± 0.000198 kcal/mol | 998.655 ± 0.037 kg/m3
288.15 K, x1 = 0.00086 | – | 998.405 ± 0.042 kg/m3 and 998.422 ± 0.091 kg/m3
288.15 K, x1 = 0.001146 | -0.00341 ± 0.000239 kcal/mol | 998.224 ± 0.048 kg/m3
288.15 K, x1 = 0.001147 | -0.00344 ± 0.000239 kcal/mol | 998.21 ± 0.038 kg/m3
288.15 K, x1 = 0.001432 | -0.00429 ± 0.000382 kcal/mol | 997.995 ± 0.057 kg/m3
288.15 K, x1 = 0.001434 | -0.00425 ± 0.000382 kcal/mol | 998.001 ± 0.057 kg/m3
288.15 K, x1 = 0.001718 | -0.00512 ± 0.000478 kcal/mol | 997.779 ± 0.086 kg/m3
288.15 K, x1 = 0.00172 | -0.00508 ± 0.000478 kcal/mol | 997.788 ± 0.086 kg/m3
288.15 K, x1 = 0.002004 | -0.00591 ± 0.000311 kcal/mol | 997.592 ± 0.25 kg/m3
288.15 K, x1 = 0.002006 | -0.00591 ± 0.000311 kcal/mol | 997.567 ± 0.25 kg/m3
298.15 K, x1 = 0.000574 | -0.00135 kcal/mol and -0.00134 kcal/mol | 996.572 ± 0.038 kg/m3 and 996.58 ± 0.038 kg/m3
298.15 K, x1 = 0.00086 | -0.002 ± 0.000201 kcal/mol | 996.345 ± 0.038 kg/m3
298.15 K, x1 = 0.000861 | -0.00203 ± 0.000201 kcal/mol | 996.319 ± 0.038 kg/m3
298.15 K, x1 = 0.001146 | -0.00269 ± 0.000263 kcal/mol | 996.114 ± 1.8 kg/m3
298.15 K, x1 = 0.001148 | -0.00271 ± 0.000239 kcal/mol | 996.078 ± 1.7 kg/m3
298.15 K, x1 = 0.001433 | -0.0033 ± 0.000287 kcal/mol | 995.875 ± 2.4 kg/m3
298.15 K, x1 = 0.001435 | -0.00335 ± 0.000287 kcal/mol | 995.871 ± 2.4 kg/m3
298.15 K, x1 = 0.001718 | -0.00394 ± 0.000287 kcal/mol | 995.624 ± 2 kg/m3
298.15 K, x1 = 0.001721 | -0.00397 ± 0.000263 kcal/mol | 995.64 ± 1.6 kg/m3
298.15 K, x1 = 0.002004 | -0.00459 ± 0.000406 kcal/mol | 995.417 ± 2.2 kg/m3
298.15 K, x1 = 0.002007 | -0.00455 ± 0.00043 kcal/mol | 995.402 ± 1.7 kg/m3
308.15 K, x1 = 0.000573 | -0.000968 ± 0.000194 kcal/mol | 993.534 ± 0.039 kg/m3 and 993.533 ± 0.039 kg/m3
308.15 K, x1 = 0.000859 | -0.00147 kcal/mol | 993.283 ± 0.039 kg/m3 and 993.282 ± 0.039 kg/m3
308.15 K, x1 = 0.001145 | -0.00193 kcal/mol and -0.00192 kcal/mol | 993.03 ± 0.04 kg/m3 and 993.053 ± 0.04 kg/m3
308.15 K, x1 = 0.001431 | -0.00239 kcal/mol and -0.00238 kcal/mol | 992.791 ± 0.041 kg/m3 and 992.795 ± 0.041 kg/m3
308.15 K, x1 = 0.001716 | -0.00285 ± 0.000222 kcal/mol | 992.542 ± 0.042 kg/m3
308.15 K, x1 = 0.001717 | -0.00288 ± 0.000222 kcal/mol | 992.525 ± 0.042 kg/m3
308.15 K, x1 = 0.002002 | -0.0033 ± 0.000234 kcal/mol | 992.3 ± 0.052 kg/m3
308.15 K, x1 = 0.002003 | -0.0033 ± 0.000234 kcal/mol | 992.285 ± 0.052 kg/m3
318.15 K, x1 = 0.000573 | -0.000982 kcal/mol and -0.000633 kcal/mol | –
318.15 K, x1 = 0.000859 | -0.00093 kcal/mol and -0.000918 kcal/mol | 989.411 ± 0.041 kg/m3 and 989.421 ± 0.041 kg/m3
318.15 K, x1 = 0.001145 | -0.00122 ± 0.000196 kcal/mol | 989.156 ± 0.041 kg/m3
318.15 K, x1 = 0.001146 | -0.00122 ± 0.000196 kcal/mol | 989.147 ± 0.041 kg/m3
318.15 K, x1 = 0.001431 | -0.00149 ± 0.000198 kcal/mol | 988.905 ± 0.042 kg/m3
318.15 K, x1 = 0.001432 | -0.00148 ± 0.000196 kcal/mol | 988.91 ± 0.042 kg/m3
318.15 K, x1 = 0.001717 | -0.00179 ± 0.000201 kcal/mol | 988.633 ± 0.043 kg/m3
318.15 K, x1 = 0.001718 | -0.00178 ± 0.000201 kcal/mol | 988.636 ± 0.043 kg/m3
318.15 K, x1 = 0.002003 | -0.00204 ± 0.000201 kcal/mol | 988.402 ± 0.044 kg/m3
318.15 K, x1 = 0.002004 | -0.00202 ± 0.000201 kcal/mol | 988.379 ± 0.044 kg/m3
